The values that follow come from US11179348B2, “Combination comprising pterostilbene for the treatment of cancer” (FUNDACIÓN UNIVERSIDAD CATÓLICA DE VALENCIA SAN VICENTE …, priority 2015, dated 2021).

In the assay the test system is HT-29 cells. Briefly: GSH levels and glutathione- and oxidative stress-related enzyme activities in HT-29 cells growing in vivo. Set-up: species or system human. The note with it: HT-29, in vivo Pter, day 21. On the procedure:
To measure enzyme activity, isolated tumor cells were homogenized in 0.1 M phosphate buffer (pH 7.2) at 4° C. GCL and GSS activities were measured as described previously (Obrador, E. et al. Hepatology 35, 74-81 (2002)). GPX (selenium dependent) activity was measured as described by Flohé and Gunzler (Flohe, L. & Gunzler, W. A. Methods Enzymol 105, 114-121 (1984)) using H2O2 as a substrate. GSR activity was determined as described by Akerboom and Sies (Akerboom, T. P. et al, Bull Eur Physiopathol Respir 17 Suppl, 221-227 (1981)). GGT activity was measured as described previously (Obrador, E. et al. Hepatology 35, 74-81 (2002)). GST activity was measured using an assay kit from Sigma. TXNRD activity, defined by the concentration of sodium-lipoate (disulfide) reduced to dehydrolipoate (dithiol) per milligram protein, was measured as previously described (Javvadi, P. et al. Cancer Res 70, 1941-1950 (2010)). SOD activity was measured as described by Flohé and Otting (Flohe, L. & Otting, F. Methods Enzymol 105, 93-104 (1984).) using 2 mM cyanide in the assay medium to distinguish mangano-type enzyme (SOD2) from the cuprozinc type (SOD1). CAT activity was analyzed as described by Aebi (Aebi, H. Methods Enzymol 105, 121-126 (1984)). NOX activity was measured by chemiluminescence following the methodology of Wind et al. (Wind, S. et al. Comparative pharmacology of chemically distinct NADPH oxidase inhibitors. Br J Pharmacol 161, 885-898 (2010)). Protein concentration was determined with the Pierce BCA protein assay (Fisher Scientific, Waltham, Mass.).
GSH, GSSG, NADP^+ and NADPH Determination.
GSH and GSSG were determined, following procedures previously described (Obrador, E. et al. PLoS One 9, e96466 (2014)), by LC/MS using the same equipment described above for pterostilbene determination. Cell processing was performed according to published methodology, where rapid N-ethylmaleimide derivatization was used to prevent GSH auto-oxidation (Asensi, M. et al. Anal Biochem 217, 323-328 (1994)). NADP^+ and NADPH were quantitated using an assay kit from Sigma (St. Louis, Mo.).
Isolation of Tumor Cells from Mouse Xenografts Using Enzymatic Digestion and a double Ficoll gradient.
To maximize the amount of isolated cells, avoiding the use of RFP-transfected cells and subsequent laser microdissection, an alternative methodology was set up. To maximize cell yield and viability the following combination of enzymes was used: collagenase III (200 U/ml; Sigma-Aldrich), DNase I (200 U/ml; Sigma-Aldrich) and trypsin (5 mg/ml; Invitrogen), and a non-enzymatic dissociation buffer (NEDB, Invitrogen). Briefly, mice were killed, and tumors were removed (avoiding skin, muscle and fat) into cold culture media and processed immediately. The tumors were minced into 1-3 mm fragments, which were then incubated with the dissociation solution (see above) for 30 min at 37° C. The tumor fragments were mixed up and down every 10 min using a […] micropipette with a tip cut to a diameter adapted to tissue fragment size. After each incubation period, the fragments were filtered through a […] nylon mesh cell strainer (BD Biosciences, San Diego, Calif., USA). The released cells were centrifuged at 1200 r.p.m. for 2 min and stored in cold CO2-independent medium with 30% FCS at […]. Fresh dissociation solution was added to the remaining tissue fragments for 30 min. Dissociation was stopped when no additional cells were released. The fragments were pushed through a sieve and all cells from all incubation periods were pooled and counted.
The dissociated cells were layered onto a double Ficoll gradient (Histopaque; Sigma-Aldrich; densities 1.077 and 1.119) and spun at 700 g for 30 min at room temperature. Cells removed from both interfaces were pooled and washed two times in CO2-independent medium and stored at 4° C. Debris and red blood cell elimination was improved with the dual-density gradient. […]

Consider `COc1cc(/C=C/c2ccc(O)cc2)cc(OC)c1` [Pter, trans-3,5-dimethoxy-4′-hydroxystilbene], for which the CAT is 0.3 ± 0.1 mU/10^6 cells, the GCL is listed as 57 ± 17 mU/10^6 cells, the GSH turned out to be 8 ± 2 nmol/10^6 cells and the GSS is listed as 6.5 ± 1.7 mU/10^6 cells. Also, the GSSG turned out to be 0.05 ± 0.02 nmol/10^6 cells, the SOD1 was determined as 0.2 ± 0.1 U/10^6 cells and the SOD2 worked out at 0.02 ± 0.01 U/10^6 cells.
